Reference: ChEMBL document CHEMBL1158010, “New cytotoxic oxygenated fucosterols from the brown alga Turbinaria conoides” (1999)
Converted amounts (≈) assume the structure as drawn.

Experiments:
HT-29 = assay: Cytotoxicity against human HT-29 cells after 6 days by MTT assay; details: HT-29, 144 h, read-out: ED50 (the source's name)
A549 = assay: Cytotoxicity against human A549 cells after 6 days by MTT assay; details: A549, 144 h, read-out: ED50 (the source's name)
P388 = assay: Cytotoxicity against mouse P388 cells after 3 days; details: P388, 72 h, read-out: ED50 (the source's name)
KB = assay: Cytotoxicity against human KB cells after 3 days by MTT assay; details: 72 h, read-out: ED50 (the source's name)

Structure (SMILES)	EC50 (HT-29)	EC50 (A549)	EC50 (P388)	EC50 (KB)
C/C=C(\CC[C@@H](C)[C@H]1CC[C@H]2[C@@H]3CC(=O)C4=CC(=O)CC[C@]4(C)[C@H]3CC[C@]12C)C(C)C	0.4 µg/mL (≈ 0.942 µM)	3.1 µg/mL (≈ 7.3 µM)	0.6 µg/mL (≈ 1.41 µM)	5.9 µg/mL (≈ 13.9 µM)
C/C=C(\CC[C@@H](C)[C@H]1CC[C@H]2[C@@H]3C[C@@H](O)C4=CC(=O)CC[C@]4(C)[C@H]3CC[C@]12C)C(C)C	1.2 µg/mL (≈ 2.81 µM)	2.3 µg/mL (≈ 5.39 µM)	0.9 µg/mL (≈ 2.11 µM)	4.6 µg/mL (≈ 10.8 µM)
C=CC(CC[C@@H](C)[C@H]1CC[C@H]2[C@@H]3CC(=O)C4=CC(=O)CC[C@]4(C)[C@H]3CC[C@]12C)(OO)C(C)C (stereo not given in full)	1.4 µg/mL (≈ 3.07 µM)	2.5 µg/mL (≈ 5.47 µM)	0.8 µg/mL (≈ 1.75 µM)	4 µg/mL (≈ 8.76 µM)
C=CC(CC[C@@H](C)[C@H]1CC[C@H]2[C@@H]3C[C@@H](O)C4=CC(=O)CC[C@]4(C)[C@H]3CC[C@]12C)(OO)C(C)C (stereo not given in full)	1.7 µg/mL (≈ 3.71 µM)	1.8 µg/mL (≈ 3.92 µM)	0.4 µg/mL (≈ 0.872 µM)	1.8 µg/mL (≈ 3.92 µM)
C/C=C(\CC[C@@H](C)[C@H]1CC[C@H]2[C@@H]3CCC4=CC(=O)CC[C@]4(C)[C@H]3CC[C@]12C)C(C)C	> 50 µg/mL	> 50 µg/mL	> 50 µg/mL	> 50 µg/mL
